According to patent US20160228444A1, “NUCLEOSIDE ANALOGS AND USES THEREOF” (Ramot at Tel-Aviv University Ltd., priority 2015, published 2016):
Structures can show the parent of a compound that is named as a salt. Where two headings read alike, the source gives them in different places.

Assays:
MDA-231 cells = assay: Median-effect drug interaction, Hoechst viability, 72 h; assay type: cell-based, human; details: Homo sapiens
Method: (§1) The ratios of the drug combination were based on the ratio of their IC50 of each drug alone. Cell viability was determined by MTT assay, as described hereinabove. The drugs were added to the cells and incubated for 72 h.
(§2) Drug interaction in adherent cells was evaluated as above except that the viability was determined by Hoechst assay.

T47D cells = assay: as above; assay type: cell-based, human
Method: as §1, §2

[1] = tested on: NCI-N87 gastric carcinoma cells; assay: as above; assay type: cell-based, human; details: Homo sapiens
Method: as §1, §2

VEGF = VEGF immunohistochemistry in tumor and heart of xenograft mice; assay type: in vivo; details: FIG. 4F
Method: (§3) The pro-angiogenic factors basic fibroblast growth factor (bFGF) and vascular endothelial growth factor (VEGF) are potent angiogenic stimulators. The expression of bFGF in the tumor and in the heart was evaluated by Western blot and qRT-PCR analyses and expression of VEGF by IHC.

bFGF = bFGF protein and mRNA in tumor and heart of xenograft mice (Western blot, qRT-PCR); assay type: in vivo; details: single agent
Method: (§4) Tumors and hearts of the mice were rapidly removed, frozen on dry ice and kept at −70° C. Tissue was then homogenized and RNA and proteins extracted using the NucleoSpin® RNA/Protein kit according to the manufacturer's protocol (Macherey-Nagel, GmbH & Co KG).
(§5) Total RNA ([…]) was primed by oligo dT and reverse-transcribed by Verso cDNA kit according to the manufacturer's protocol (Thermo Scientific). Analyses of qPCR were performed with Kapa Sybr® Fast (Kapa Biosystems) on a Step One Plus thermocycler (Applied Biosystems). The comparative threshold method was used to calculate the relative gene expression. Values were normalized against glyceraldehyde 3-phosphate dehydrogenase (GAPDH). Expression of the GAPDH mRNA in each individual sample was used to normalize the dataset. The sequences of the primers were as follows: […]
(§6) Protein levels in the samples were determined with the BCA protein assay kit (Pierce). The samples were subjected to Western blot analyses. The expression of proteins was visualized using their specified primary antibodies followed by the secondary IgG IRDye® 680DX antibody. Each detected band was quantified using the Odyssey Infrared Imaging System (LI-COR Biosciences) and normalized to the level of actin. The fold increase of a specific protein was determined by the ratio of the band intensity obtained from treated and untreated samples.
as §3

HO-1 = HO-1 protein and mRNA in tumor and heart of xenograft mice (Western blot, qRT-PCR); assay type: in vivo; details: single agent
Method: as §4, §5, §6
The effect of the drugs on the expression of genes associated with cell survival and death was examined by following changes in transcription and protein expression in tissue samples taken from the mice with glioblastoma xenografts. Heme oxygenase (HO-1) is known to play a protective role in the heart, whereas, in many cancers it is expressed and promotes growth and survival of neoplastic cells.

TNF-α = assay: Serum TNF-α in U251 xenograft mice (ELISA); assay type: in vivo; details: single agent, FIG. 8C
Method: (§7) AN446 was tested in vivo using a xenograft of glioblastoma (U251 cells) in mice.

fibrous collagen = assay: Fibrosis in tumor, heart and kidney of U251 xenograft mice (Picrosirius Red / Fast Green); assay type: in vivo; details: single agent
Method: as §7

HUT-78 CTCL cells = assay: Median-effect drug interaction, MTT viability, 72 h; assay type: cell-based, human
Method: (§8) Cell viability was determined by an MTT cell viability assay after 48 hours. MyLa cells (10^4 cells/well), Hut78 cells (5×10^3 cells/well) and normal PBLs (10^5 cells/well) were seeded in 96 well-plates. The PBLs were activated with 40 μg/10^6 cells of phytohemagglutinine (PHA) for 24 h before the experiment.
as §1

[2] = tested on: U251 MG human glioma cells; assay: FACS viability, annexin V-FITC / PI; assay type: cell-based; details: AN446 24 h; 200 nM Dox 5 h; combination compared to Dox alone; FIG. 1C
Method: (§9) Cell viability by flow cytometry analysis (FACS) analysis was determined using the Mebcyto apoptosis kit (MBL-Japan). The cell lines 4T1, U251 (2×10^5 cells/well), astrocytes and the cardiomyoblastic cell line H9C2 (5×10^5 cells/well) were seeded in six-well plates. Following treatment they were trypsinized, washed with PBS, resuspended in […] of binding buffer and double-stained with annexin V-FITC and propidium iodide (PI) according to the manufacturer's instructions. The stained cells were subjected to FACS analyses (Calibur cytometer, Becton Dickinson) where 30,000 cells were allowed to flow for each determination point and the percentage of cells in each state (viability or death) was defined by their distribution in fluorescence dot-plots using WinMdi 2.8 software (Scripps Research Institute, La-Jolla, USA).
(§10) The apoptotic effect of AN446, Dox and their combination was evaluated in U251 and 4T1 cancer cells, and in the non-cancerous rat cardiomyoblast cell line (H9C2) and in primary rat astrocytes, using procedures previously described for AN7 [Tarasenko et al., Invest New Drugs 2012, 30:130-143].

[3] = tested on: murine mammary carcinoma 4T1; assay: FACS viability, annexin V-FITC / PI; assay type: cell-based; details: AN446 24 h; 200 nM Dox 5 h; combination compared to Dox alone; FIG. 1C
Method: as §9, §10

[4] = tested on: U251 human glioblastoma xenograft; assay: Glioblastoma xenograft model (survival, body weight, tumor volume, tumor weight, Ki-67)
Method: Xenograft of glioblastoma: 8- to 10-week-old male Hsd athymic FOXN (Harlan, Jerusalem, Israel) were inoculated sc in the flanks with 5×10^6 U251 cells. Tumor length (L) and width (W) were measured with a caliper twice weekly. Tumor volumes were calculated according to the formula: (L×W2)/2. When the tumor was established (volume of 50-100 mm^3) the mice were randomly divided into six groups treated with: vehicle control (saline); ip Dox 4 mg/kg once weekly; po AN446 25 mg/kg thrice a week; po AN7 50 mg/kg thrice a week; combination of AN446+Dox (4 mg/kg ip Dox once a week and 25 mg/kg po AN446 thrice a week); AN7+Dox (4 mg/kg ip Dox once a week and 50 mg/kg po AN7 thrice weekly). Untreated, non-bearing tumor naive mice were maintained under the same conditions. The experiment was terminated after 25 treatment days, the mice were sacrificed under CO2 and their tumors and hearts were removed, weighed and divided into parts dedicated for immunohistochemistry (IHC) and the rest were frozen (−80° C.) for Western blot and Quantitative PCR (qRT-PCR) analyses.
Inactivation of avidin-biotin nonspecific binding was prevented by a blocking kit, according to the manufacturer's protocol (Vector Laboratories). […] The secondary antibody was biotin conjugated goat anti-rabbit or anti-mouse IgG. Slides were then stained with the ABC peroxidase system, developed with diaminobenzidine (DAB) (Vector Laboratories) and counterstained with hematoxylin (Bio-Optica, Milano, Italy). The slides were examined using an Olympus BX 52 light microscope, and images were taken with an Olympus DP50 digital camera system.
Mice were implanted subcutaneously with U251 cells and when the tumors reached 50-100 mm^3 treatments were initiated. Survival was evaluated by the Kaplan-Meier end-product analysis, where treatment failure (the experimental end points) was a loss of ˜20% body weight, or a tumor volume of >1 cm^3.

PBL = assay: Median-effect drug interaction, MTT viability, 72 h; assay type: cell-based; details: Homo sapiens
Method: as §8, §1

c-Myc = c-Myc and p-c-Myc (Thr 58) Western blot in tumor and heart of xenograft mice; assay type: in vivo
Method: as §6
The c-Myc protein is an important regulator of normal cell physiology and in tumor cells it plays an important role in activating oncogenic pathways [Soucek & Evan, Curr Opin Genet Dev 2010, 20:91-95].

COc1cccc2c1C(=O)c1c(O)c3c(c(O)c1C2=O)C[C@@](O)(C(=O)CO)C[C@@H]3O[C@H]1C[C@H](N)[C@H](O)[C@H](C)O1 [Dox, Doxorubicin hydrochloride]
IC50 (MDA-231 cells; MDA-MB-231, MDA-231, Dox in combination with AN446, read-out: Dox com IC50): 5.3 nM
IC50 (MDA-231 cells; MDA-MB-231, MDA-231, Dox in combination with SAHA, read-out: Dox com IC50): 4.3 nM
IC50 (MDA-231 cells; MDA-MB-231, MDA-231, single agent, read-out: Dox IC50): 10.2 nM
IC50 (T47D cells; Homo sapiens, Dox in combination with AN446, read-out: Dox com IC50): 7.6 nM
IC50 (T47D cells; Homo sapiens, Dox in combination with SAHA, read-out: Dox com IC50): 5.2 nM
IC50 (T47D cells; Homo sapiens, single agent, read-out: Dox IC50): 19 nM
IC50 (T47D cells; single agent, hydrochloride, read-out: Dox IC50): 19.1 nM
IC50 ([1]; NCI-N87, NCI-N87, Dox in combination with AN446, read-out: Dox com IC50): 8.5 ± 1 nM
IC50 ([1]; NCI-N87, NCI-N87, single agent, read-out: Dox IC50): 30 ± 1.3 nM
VEGF expression in the heart (VEGF): reduced
expression of mouse bFGF protein in the heart (bFGF; heart, FIG. 4D): decreased significantly
bFGF mRNA in the tumor (bFGF; tumor, FIG. 6): significantly reduced the bFGF mRNA
expression of bFGF in tumors (bFGF; tumor, FIGS. 4A, 4B): decreased significantly
HO-1 mRNA in the heart (HO-1; heart): decreased HO-1 mRNA
HO-1 expression in the heart (decrease) (HO-1; heart, FIGS. 4D, 4E): ~5 fold
tumor HO-1 protein expression (decrease) (HO-1; tumor, FIGS. 4A, 4B): unchanged
serum levels of TNF-α (TNF-α): increased serum levels of TNF-α
fibrosis in the heart (fibrous collagen; heart, FIGS. 8A-8C): induced fibrosis
fibrosis in the kidneys (fibrous collagen; kidneys, FIG. 8A): induced fibrosis
fibrosis in the tumor (fibrous collagen; tumor, FIG. 8A): reduced fibrosis
IC50 (HUT-78 CTCL cells; HUT-78, single agent, hydrochloride, read-out: Dox IC50): 31 nM
IC50 (HUT-78 CTCL cells; Homo sapiens, HuT78, HUT-78, Dox in combination with AN446, read-out: Dox com IC50): 11 nM
IC50 (HUT-78 CTCL cells; Homo sapiens, HuT78, HUT-78, Dox in combination with SAHA, read-out: Dox com IC50): 12 nM
IC50 (HUT-78 CTCL cells; Homo sapiens, HuT78, HUT-78, single agent, read-out: Dox IC50): 30.8 nM
viability / mortality of U251 cells [2]: significantly reduced the viability
viability / mortality of 4T1 cells [3]: significantly reduced the viability
body weight ([4]; Dox 4 mg/kg ip once a week, from day 13): drastic decrease in body weight
treatment failure ([4]; Dox 4 mg/kg ip once a week, weight loss contributing): 60%
Ki-67 positive cells in tumors ([4]; single agent vs vehicle, FIGS. 3E, 3F): considerably more Ki-67 positive cells were detected in tumors of the vehicle-treated mice
survival of mice until end of experiment (day 25) ([4]; single agent: AN446 25 mg/kg or AN7 50 mg/kg po thrice weekly, Dox 4 mg/kg ip once a week, FIG. 3A): 40%
IC50 (PBL; Dox in combination with AN446, read-out: Dox com IC50): 15 nM
IC50 (PBL; Dox in combination with SAHA, read-out: Dox com IC50): 20 nM
IC50 (PBL; single agent, read-out: Dox IC50): 70 nM
c-Myc protein expression in the hearts (c-Myc; heart, FIG. 5B): repressed
c-Myc protein expression in tumors (c-Myc; tumor, FIG. 5A): unaffected
